Earlier results as cited in US8314091B2, “N-benzyl,N'-arylcarbonylpiperazine derivatives” (MSD OSS B.V., priority 2007, dated 2012).

Assays:
[1] = test system: vascular smooth muscle cell proliferation and neointima formation; conditions: following balloon injury, in vitro and in vivo
[2] = test system: tumours in an animal model of prostate cancer
[3] = test system: β-amyloid; conditions: in vivo

For `O=S(=O)(c1ccccc1)N(CC(F)(F)F)c1ccc(C(O)(C(F)(F)F)C(F)(F)F)cc1` [Example T0901317], the “effect on vascular smooth muscle cell proliferation and neointima formation” value [1] is listed as “inhibit vascular smooth muscle cell proliferation and neointima formation”, the “effect on progression of tumours” value [2] is listed as “delayed progression of tumours” and the “deposition of β-amyloid” value [3] is listed as “lower deposition of β-amyloid”. The memory [3] was “improve memory”.
